Patent US20240277658A1, “NLRP3 ACTIVATORS FOR USE IN THE TREATMENT OF INFECTIOUS DISEASES OR CANCER BY ACTIVATING NLRP3 INFLAMMASOME” (ALBERT-LUDWIGS-UNIVERSITÄT FREIBURG, priority 2020, published 2024)
Where “and” joins values, the source holds several entries; their conditions need not be identical. Equal entries are not always repeated. Where two headings read alike, the source gives them in different places.

Assays:
[1] = molecular target: T1, NLRP3 inflammasome (Mus musculus, UniProt Q8R4B8); assay: IL-1β release from LPS-primed BMDCs (ELISA) as readout of NLRP3 inflammasome activation; type: cell-based
T1 construct: endogenous in cells; host or cells: primary mouse bone marrow-derived dendritic cells (BMDCs), LPS-primed
Summary of the method: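 NLRP3 inflammasome activation was read out as IL-1β released into the supernatant, measured by ELISA. Murine BMDCs were primed with LPS (50 ng ml^−1, 3 hours), then incubated with compounds for 3 hours, with each condition run in three technical replicates. Nigericin at 5 μM acted as the positive control activator, and IL-1β release was also expressed as a percentage of that control.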

[2] = test system: BMDCs; assay: LDH release (lytic cell death, pyroptosis) from LPS-primed BMDCs; type: cell-based, mouse; details: for Average (% positive control): LDH release; for cytotoxicity at 50 µM / cytotoxicity at 18.75 µM / cytotoxicity at 37.5 µM / cytotoxicity at 75 µM: Mus musculus, BMDC; for cytotoxicity at 50 µM: LPS-primed BMDCs
Summary of the method: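 Mouse BMDCs (7-9 days differentiated, GM-CSF) primed with 50 ng ml^−1 E. coli K12 LPS for 3 hours, then exposed 3 hours to compounds (50 μM unless indicated) or activators (nigericin 5 μM; R837, CL097 100 μM). Lytic death measured as LDH release by colorimetric assay, triplicate wells.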

[3] = IL-1β release, compound 50 μM, positive control nigericin 5 μM
[4] = compound 50 μM, LPS-primed BMDCs
[5] = single replicates, compound 50 μM, LPS-primed BMDCs
[6] = compound 50 μM, positive control nigericin 5 μM
[7] = compound 50 μM, read-out: Average LDH release (% of max.)
[8] = single replicates, compound 50 μM, read-out: LDH release (% of max.)

T1 sequence (Q8R4B8 whole entry): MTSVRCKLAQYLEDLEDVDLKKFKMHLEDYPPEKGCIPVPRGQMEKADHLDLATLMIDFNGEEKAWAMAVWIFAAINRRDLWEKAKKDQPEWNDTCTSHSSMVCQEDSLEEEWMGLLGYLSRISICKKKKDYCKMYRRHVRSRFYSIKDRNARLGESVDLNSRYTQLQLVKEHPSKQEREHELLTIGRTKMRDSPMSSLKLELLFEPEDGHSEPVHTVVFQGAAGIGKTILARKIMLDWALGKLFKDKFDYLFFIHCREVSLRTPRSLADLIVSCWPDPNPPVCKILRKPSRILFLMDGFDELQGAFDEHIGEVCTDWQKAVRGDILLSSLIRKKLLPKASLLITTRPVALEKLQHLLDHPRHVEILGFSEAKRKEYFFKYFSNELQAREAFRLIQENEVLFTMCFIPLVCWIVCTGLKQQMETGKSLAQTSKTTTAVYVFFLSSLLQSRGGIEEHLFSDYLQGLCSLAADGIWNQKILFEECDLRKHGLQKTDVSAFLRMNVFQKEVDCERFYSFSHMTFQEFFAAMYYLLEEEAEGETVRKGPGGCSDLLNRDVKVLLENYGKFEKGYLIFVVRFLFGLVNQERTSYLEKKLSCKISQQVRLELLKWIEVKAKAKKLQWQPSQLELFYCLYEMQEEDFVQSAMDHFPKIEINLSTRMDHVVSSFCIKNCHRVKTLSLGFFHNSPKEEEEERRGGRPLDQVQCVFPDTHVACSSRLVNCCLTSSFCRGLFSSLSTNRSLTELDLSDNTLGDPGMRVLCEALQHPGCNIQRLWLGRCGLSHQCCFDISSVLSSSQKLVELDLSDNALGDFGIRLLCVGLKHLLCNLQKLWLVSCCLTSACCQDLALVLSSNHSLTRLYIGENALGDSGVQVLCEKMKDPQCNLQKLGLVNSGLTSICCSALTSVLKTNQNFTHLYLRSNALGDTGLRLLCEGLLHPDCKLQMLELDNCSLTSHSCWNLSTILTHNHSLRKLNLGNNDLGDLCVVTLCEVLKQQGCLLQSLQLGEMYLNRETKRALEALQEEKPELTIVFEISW

| Average (% positive control) [1, 3] [% positive control] | Average IL-1β [1, 4] [ng/mL] | Structure (SMILES) | IL-1β [1, 5] | Average (% positive control) [2, 6] [% positive control] | cytotoxicity at 50 µM [2, 7] [%] | cytotoxicity at 50 µM [2, 8] [%] | also measured |
| --- | --- | --- | --- | --- | --- | --- | --- |
| 9.988 | 0.716 | Cc1ccc(NC(=O)Nc2ccccc2)cc1NC(=O)NC1CC1 [L01.028, 3-cyclopropyl-1-{2-methyl-5-[(phenyl-carbamoyl)amino]-phenyl}urea] | 0.686 ng/mL and 0.757 ng/mL and 0.705 ng/mL | 19.825 | 14.5 | 12.6 |  |
| 1.049 | 0.075 | CC(C)C(NC(=O)Nc1ccc2c(c1)COC2)c1nc(-c2cccnc2)no1 (stereo not drawn) [L01.114, 3-(1,3-dihydro-2-benzo-furan-5-yl)-1-{2-meth-yl-1-[3-(pyridin-3-yl)-1,2,4-oxadiazol-5-yl]-propyl}urea] | 0.073 ng/mL and 0.081 ng/mL and 0.072 ng/mL | 12.801 | 9.37 | 9.46 |  |
| 0.906 | 0.065 | CN(C)Cc1ccc(NC(=O)Nc2ccccc2)cc1 [L01.121, 3-{4-[(dimethylamino)-methyl]phenyl}-1-phen-ylurea] | 0.066 ng/mL and 0.068 ng/mL and 0.060 ng/mL | 11.907 | 8.71 | 7.8 |  |
| 15.066 | 1.080 | O=C(Nc1ccccc1)Nc1ccc(NC(=O)c2ccoc2)cc1 [L01.092, N-{4-[(phenylcarbamo-yl)amino]phenyl}furan-3-carboxamide] | 1.253 ng/mL and 1.060 ng/mL and 0.927 ng/mL | 20.483 | 15 | 16.4 |  |
| 1.021 | 0.073 | CC(C)C(=O)Nc1cccc(NC(=O)Nc2ccccc2)c1 [L01.023, 2-methyl-N-{3-[(phenyl-carbamoyl)amino]phen-yl}propanamide] | 0.065 ng/mL and 0.075 ng/mL and 0.080 ng/mL | 7.611 | 5.57 | 5.1 |  |
| 5.819 | 0.417 | CN1C(=O)c2ccc(NC(=O)Nc3ccccc3)cc2C1=O [L01.128, 3-(2-methyl-1,3-dioxo-2,3-dihydro-1H-iso-indol-5-yl)-1-phenyl-urea] | 0.456 ng/mL and 0.394 ng/mL and 0.402 ng/mL | 16.086 | 11.8 | 12.1 |  |
| 3.589 | 0.257 | O=C(NCc1nc(-c2cccs2)no1)Nc1ccccc1 [L01.087, 1-phenyl-3-{[3-(thio-phen-2-yl)-1,2,4-oxadiazol-5-yl]meth-yl}urea] | 0.237 ng/mL and 0.239 ng/mL and 0.296 ng/mL | 9.562 | 7 | 6.79 |  |
| 1.025 | 0.073 | COc1cccc(NC(=O)N(C)Cc2nc(-c3cccnc3)no2)c1 [L01.136, 1-(3-methoxyphenyl)-3-methyl-3-{[3-(pyridin-3-yl)-1,2,4-oxadiazol-5-yl]methyl}urea] | 0.064 ng/mL and 0.073 ng/mL and 0.083 ng/mL | 9.465 | 6.92 | 6.95 |  |
| 6.538 | 0.469 | Cc1ccc(-c2noc(CN3C(=O)CN(c4ccccc4)C3=O)n2)cc1 [L01.127, 3-{[3-(4-methylphenyl)-1,2,4-oxadiazol-5-yl]-methyl}-1-phenylimid-azolidine-2,4-dione] | 0.490 ng/mL and 0.475 ng/mL and 0.441 ng/mL | 14.301 | 10.5 | 11 |  |
| 19.737 | 1.415 | O=C(Nc1ccccc1)Nc1ccc(N2CCCC2)cc1 [L01.004, 3-phenyl-1-[4-(pyrrol-idin-1-yl)phenyl]urea] | 1.192 ng/mL and 1.485 ng/mL and 1.567 ng/mL | 23.074 | 16.9 | 15.2 |  |
|  |  | Cc1c(F)cccc1CN1CCCC(Cc2nc(-c3ccc(NC(=O)Nc4ccccc4)cc3)no2)C1 (stereo not drawn) [PM16, 1-(4-(5-((1-(3-fluoro-2-methylbenzyl)piperidin-3-yl)methyl)-1,2,4-oxadiazol-3-yl)phenyl)-3-phenylurea] |  |  |  |  | Average IL-1β ([1]; 18.75 μM): 0.777 ng/mL; IL-1β ([1]; 18.75 μM, individual replicate values): 0.764 ng/mL and 0.830 ng/mL and 0.736 ng/mL; Average IL-1β ([1]; 37.5 μM): 0.846 ng/mL; IL-1β ([1]; 37.5 μM, individual replicate values): 0.895 ng/mL and 0.795 ng/mL and 0.848 ng/mL; Average IL-1β ([1]; 75 μM): 0.890 ng/mL; IL-1β ([1]; 75 μM, individual replicate values): 0.876 ng/mL and 0.848 ng/mL and 0.948 ng/mL; Average (% positive control) ([1]; IL-1β, 18.75 μM, positive control EN22 18.75 μM): 12.288 % positive control; Average (% positive control) ([1]; IL-1β, 37.5 μM, positive control EN22 18.75 μM): 13.380 % positive control; Average (% positive control) ([1]; IL-1β, 75 μM, positive control EN22 18.75 μM): 14.083 % positive control; cytotoxicity at 18.75 µM ([2]; section 1.4, 18.75 μM, read-out: Average LDH release (% of max.)): 72.8%; cytotoxicity at 37.5 µM ([2]; section 1.4, 37.5 μM, read-out: Average LDH release (% of max.)): 90%; cytotoxicity at 75 µM ([2]; section 1.4, 75 μM, read-out: Average LDH release (% of max.)): 97.5%; cytotoxicity at 18.75 µM ([2]; section 1.4, single replicates, 18.75 μM, read-out: LDH release (% of max.)): 72%; cytotoxicity at 37.5 µM ([2]; section 1.4, single replicates, 37.5 μM, read-out: LDH release (% of max.)): 89%; cytotoxicity at 75 µM ([2]; section 1.4, single replicates, 75 μM, read-out: LDH release (% of max.)): 100%; Average (% positive control) ([2]; section 1.4, 18.75 μM, positive control EN22 18.75 μM): 102.052 % positive control; Average (% positive control) ([2]; section 1.4, 37.5 μM, positive control EN22 18.75 μM): 126.179 % positive control; Average (% positive control) ([2]; section 1.4, 75 μM, positive control EN22 18.75 μM): 136.598 % positive control |
| 1.044 | 0.075 | O=C(Nc1cccc(Cl)c1)N1CCOCC1c1nc(-c2cccs2)no1 (stereo not drawn) [L01.090, N-(3-chlorophenyl)-3-[3-(thiophen-2-yl)-1,2,4-oxadiazol-5-yl]morph-oline-4-carboxamide] | 0.079 ng/mL and 0.077 ng/mL and 0.069 ng/mL | 20.610 | 15.1 | 15.3 |  |
| 3.697 | 0.265 | COc1ccccc1NC(=O)NCc1nc(-c2cccnc2)no1 [L01.043, 1-(2-methoxyphenyl)-3-{[3-(pyridin-3-yl)-1,2,4-oxadiazol-5-yl]methyl}-urea] | 0.282 ng/mL and 0.272 ng/mL and 0.242 ng/mL | 11.039 | 8.08 | 8.07 |  |
| 1.584 | 0.114 | O=C(NCc1nc(-c2ccsc2)no1)Nc1cc(Cl)cc(Cl)c1 [L01.115, 1-(3,5-dichlorophenyl)-3-{[3-(thiophen-3-yl)-1,2,4-oxadiazol-5-yl]-methyl}urea] | 0.122 ng/mL and 0.108 ng/mL and 0.111 ng/mL | 30.346 | 22.2 | 23.6 |  |
